Data taken from patent publication US9212182B2, “Bicyclic sulfonamide compounds as sodium channel inhibitors” (AMGEN INC., priority 2013, dated 2015).

These compounds were tested against Nav 1.7 (Homo sapiens (Human), UniProt Q15858) (assay: in-vitro Nav 1.7 PX (IC50)). Conditions: not given.
Type: cell-based

Nav 1.7, sequence (Q15858 whole entry): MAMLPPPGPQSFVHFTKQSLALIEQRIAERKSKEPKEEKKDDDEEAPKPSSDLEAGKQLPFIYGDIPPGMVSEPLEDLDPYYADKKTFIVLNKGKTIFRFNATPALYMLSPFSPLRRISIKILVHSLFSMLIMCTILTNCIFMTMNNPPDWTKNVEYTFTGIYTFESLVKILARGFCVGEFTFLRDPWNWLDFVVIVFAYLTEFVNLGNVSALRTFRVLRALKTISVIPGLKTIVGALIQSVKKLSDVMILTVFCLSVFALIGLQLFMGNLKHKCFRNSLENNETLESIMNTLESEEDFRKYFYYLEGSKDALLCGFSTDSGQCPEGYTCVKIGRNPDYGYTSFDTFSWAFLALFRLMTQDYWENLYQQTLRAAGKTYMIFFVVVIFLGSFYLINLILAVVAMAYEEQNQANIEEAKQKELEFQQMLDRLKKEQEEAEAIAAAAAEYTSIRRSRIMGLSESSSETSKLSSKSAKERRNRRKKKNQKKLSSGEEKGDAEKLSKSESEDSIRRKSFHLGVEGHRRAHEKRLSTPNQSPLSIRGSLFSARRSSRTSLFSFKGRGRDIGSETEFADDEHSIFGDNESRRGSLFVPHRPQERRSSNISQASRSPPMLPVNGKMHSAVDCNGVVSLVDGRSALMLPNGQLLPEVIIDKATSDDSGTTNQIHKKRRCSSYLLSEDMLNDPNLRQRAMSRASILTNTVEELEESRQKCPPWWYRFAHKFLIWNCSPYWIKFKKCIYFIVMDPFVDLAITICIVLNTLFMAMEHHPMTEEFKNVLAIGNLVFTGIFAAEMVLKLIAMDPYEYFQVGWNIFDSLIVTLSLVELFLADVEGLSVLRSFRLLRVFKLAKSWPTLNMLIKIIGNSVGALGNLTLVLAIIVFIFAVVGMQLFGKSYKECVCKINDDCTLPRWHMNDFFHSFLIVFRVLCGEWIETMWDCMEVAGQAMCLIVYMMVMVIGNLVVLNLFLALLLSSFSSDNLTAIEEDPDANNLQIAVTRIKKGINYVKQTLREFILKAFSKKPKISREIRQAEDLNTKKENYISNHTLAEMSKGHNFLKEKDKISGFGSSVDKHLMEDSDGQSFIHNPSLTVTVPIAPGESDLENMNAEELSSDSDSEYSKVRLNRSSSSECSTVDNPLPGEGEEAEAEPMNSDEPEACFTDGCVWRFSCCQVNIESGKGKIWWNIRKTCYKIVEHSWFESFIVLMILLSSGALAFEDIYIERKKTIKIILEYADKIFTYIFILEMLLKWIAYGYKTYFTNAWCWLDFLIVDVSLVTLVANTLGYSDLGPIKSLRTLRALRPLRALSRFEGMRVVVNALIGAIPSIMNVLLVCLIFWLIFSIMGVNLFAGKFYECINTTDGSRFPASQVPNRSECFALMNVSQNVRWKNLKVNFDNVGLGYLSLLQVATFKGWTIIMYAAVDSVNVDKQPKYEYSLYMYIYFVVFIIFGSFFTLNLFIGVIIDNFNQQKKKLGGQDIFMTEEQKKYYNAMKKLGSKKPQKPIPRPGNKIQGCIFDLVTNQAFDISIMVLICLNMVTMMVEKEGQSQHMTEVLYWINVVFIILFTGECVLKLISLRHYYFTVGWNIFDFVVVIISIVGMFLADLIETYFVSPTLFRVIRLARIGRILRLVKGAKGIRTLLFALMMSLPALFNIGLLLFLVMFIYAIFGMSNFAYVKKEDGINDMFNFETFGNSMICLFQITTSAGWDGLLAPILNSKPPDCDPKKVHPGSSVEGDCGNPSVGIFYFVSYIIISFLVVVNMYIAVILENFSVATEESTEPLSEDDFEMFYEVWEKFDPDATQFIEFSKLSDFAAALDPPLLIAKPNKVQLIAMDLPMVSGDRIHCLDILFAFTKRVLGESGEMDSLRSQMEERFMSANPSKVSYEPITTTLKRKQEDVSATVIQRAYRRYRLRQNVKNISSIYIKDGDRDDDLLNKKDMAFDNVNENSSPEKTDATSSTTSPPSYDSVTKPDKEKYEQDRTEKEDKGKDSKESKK

IC50 [nM] | SMILES
56 | COc1cc(-c2ccc(F)c(C)c2)c(F)cc1-n1c(=O)cnc2cc(S(=O)(=O)Nc3ccon3)ccc21 [Example 1194, 1-(2,4′-difluoro-5-methoxy-3′-methyl-4-biphenylyl)-N-3-isoxazolyl-2-oxo-1,2-dihydro-6-quinoxalinesulfonamide]
9 | COc1cc(-c2cc(F)cc(Cl)c2)c(C)cc1-n1c(=O)ccc2cc(S(=O)(=O)Nc3ccon3)ccc21 (atropisomer, axis not shown; (P)) [Example 417, (P)-1-(3′-chloro-5′-fluoro-5-methoxy-2-methyl-4-biphenylyl)-N-3-isoxazolyl-2-oxo-1,2-dihydro-6-quinolinesulfonamide]
146 | COc1cc(-c2cccc(OC(F)F)c2)c(F)cc1-n1c(=O)ccc2cc(S(=O)(=O)Nc3cc(C)ncn3)ccc21 (atropisomer, axis not shown; (P)) [Example 1173, (P)-1-(3′-(difluoromethoxy)-2-fluoro-5-methoxy-4-biphenylyl)-N-(6-methyl-4-pyrimidinyl)-2-oxo-1,2-dihydro-6-quinolinesulfonamide]
96 | COc1nc(OCc2ccc(F)c(F)c2)c(Cl)cc1-n1c(=O)ccc2cc(S(=O)(=O)Nc3ccon3)ccc21 [Example 1217, 1-(5-chloro-6-((3,4-difluorobenzyl)oxy)-2-methoxy-3-pyridinyl)-N-3-isoxazolyl-2-oxo-1,2-dihydro-6-quinolinesulfonamide]
299 | COc1ccc(-c2cc(F)cnc2OC)cc1-n1c(=O)ccc2cc(S(=O)(=O)Nc3ccon3)ccc21 [Example 488, 1-(5-(5-fluoro-2-methoxy-3-pyridinyl)-2-methoxyphenyl)-N-3-isoxazolyl-2-oxo-1,2-dihydro-6-quinolinesulfonamide]
2590 | COc1nc(Oc2ccc(F)cc2F)c(Cl)cc1-n1c(=O)ccc2cc(S(=O)(=O)Nc3ccon3)ccc21 [Example 1221, 1-(5-chloro-6-(2,4-difluorophenoxy)-2-methoxy-3-pyridinyl)-N-3-isoxazolyl-2-oxo-1,2-dihydro-6-quinolinesulfonamide]
13 | COc1cc(-c2cc(F)cc(Cl)c2)c(F)cc1-n1c(=O)ccc2cc(S(=O)(=O)Nc3cnccn3)ccc21 (atropisomer, axis not shown; (P)) [Example 543, (P)-1-(3′-chloro-2,5′-difluoro-5-methoxy-4-biphenylyl)-2-oxo-N-2-pyrazinyl-1,2-dihydro-6-quinolinesulfonamide]
20 | COc1cc(-c2ccc(C)c(Cl)c2)ccc1-n1c(=O)ccc2cc(S(=O)(=O)Nc3ccon3)ccc21 (atropisomer, axis not shown; (P)) [Example 587, (P)-1-(3′-chloro-3-methoxy-4′-methyl-4-biphenylyl)-N-3-isoxazolyl-2-oxo-1,2-dihydro-6-quinolinesulfonamide]
772 | COc1cc(Br)ccc1-n1c(=O)ccc2cc(S(=O)(=O)Nc3ccon3)ccc21 (atropisomer, axis not shown; (P)) [Example 574, (P)-1-(4-bromo-2-methoxyphenyl)-N-3-isoxazolyl-2-oxo-1,2-dihydro-6-quinolinesulfonamide]
8360 | COc1cc(Br)c(F)cc1-n1c(=O)ccc2cc(S(=O)(=O)Nc3cc(OCC4(C)CC4)ncn3)ccc21 (atropisomer, axis not shown; (P)) [Example 1189, (P)-1-(4-bromo-5-fluoro-2-methoxyphenyl)-N-(6-((1-methylcyclopropyl)methoxy)-4-pyrimidinyl)-2-oxo-1,2-dihydro-6-quinolinesulfonamide]

SMILES | IC50 [nM]
COc1cc(-c2cccc(F)c2)c(Cl)cc1-n1c(=O)ccc2cc(S(=O)(=O)Nc3cccnn3)ccc21 (atropisomer, axis not shown; (M)) [Example 468, (M)-1-(2-chloro-3′-fluoro-5-methoxy-[1,1′-biphenyl]-4-yl)-2-oxo-N-(pyridazin-3-yl)-1,2-dihydroquinoline-6-sulfonamide] | 7000

Same assay, conditions: in-vitro Nav 1.7 PX data

IC50 [nM] | SMILES
14 | COc1cc(Cl)cc(-c2cc(OC)c(-n3c(=O)ccc4cc(S(=O)(=O)Nc5cccnn5)ccc43)cc2F)c1 [Example 930, 1-(3′-chloro-2-fluoro-5,5′-dimethoxy-4-biphenylyl)-2-oxo-N-3-pyridazinyl-1,2-dihydro-6-quinolinesulfonamide]
83 | COc1cc(-c2ccc(F)c(F)c2)ccc1-n1c(=O)ccc2cc(S(=O)(=O)Nc3ncco3)ccc21 [Example 894, 1-(3′,4′-difluoro-3-methoxy-4-biphenylyl)-N-1,3-oxazol-2-yl-2-oxo-1,2-dihydro-6-quinolinesulfonamide]
139 | COc1cc(-c2cc(C)cnc2OC)ccc1-n1c(=O)ccc2cc(S(=O)(=O)Nc3ccon3)ccc21 [Example 1022, N-3-isoxazolyl-1-(2-methoxy-4-(2-methoxy-5-methyl-3-pyridinyl)phenyl)-2-oxo-1,2-dihydro-6-quinolinesulfonamide]
82 | COc1cc(-c2ccc(F)c(C#N)c2)ccc1-n1c(=O)ccc2cc(S(=O)(=O)Nc3ccon3)ccc21 [Example 1020, 1-(3′-cyano-4′-fluoro-3-methoxy-4-biphenylyl)-N-3-isoxazolyl-2-oxo-1,2-dihydro-6-quinolinesulfonamide]
54 | COc1cc(-c2cccc(OC)c2C)c(F)cc1-n1c(=O)ccc2cc(S(=O)(=O)Nc3ccon3)ccc21 [Example 735, 1-(2-fluoro-3′,5-dimethoxy-2′-methyl-4-biphenylyl)-N-3-isoxazolyl-2-oxo-1,2-dihydro-6-quinolinesulfonamide]
32 | COc1cc(-c2ccc(-n3c(=O)ccc4cc(S(=O)(=O)Nc5ccon5)ccc43)c(OC)c2)ccc1Cl [Example 1027, 1-(4′-chloro-3,3′-dimethoxy-4-biphenylyl)-N-3-isoxazolyl-2-oxo-1,2-dihydro-6-quinolinesulfonamide]
3 | COc1cc(-c2cc(Cl)ccc2C)ccc1-n1c(=O)ccc2cc(S(=O)(=O)Nc3ccon3)ccc21 [Example 1029, 1-(5′-chloro-3-methoxy-2′-methyl-4-biphenylyl)-N-3-isoxazolyl-2-oxo-1,2-dihydro-6-quinolinesulfonamide]
32 | COc1ccc(-c2cc(Cl)ccc2F)cc1-n1c(=O)ccc2cc(S(=O)(=O)Nc3ccon3)ccc21 [Example 880, 1-(5′-chloro-2′-fluoro-4-methoxy-3-biphenylyl)-N-3-isoxazolyl-2-oxo-1,2-dihydro-6-quinolinesulfonamide]
23 | COc1cc(Cl)cc(-c2cc(OC)c(-n3c(=O)ccc4cc(S(=O)(=O)Nc5ncc(F)cn5)ccc43)cc2F)c1 [Example 929, 1-(3′-chloro-2-fluoro-5,5′-dimethoxy-4-biphenylyl)-N-(5-fluoro-2-pyrimidinyl)-2-oxo-1,2-dihydro-6-quinolinesulfonamide]
217 | COc1nc(OCC2CCCC2)c(Cl)cc1-n1c(=O)ccc2cc(S(=O)(=O)Nc3ccon3)ccc21 [Example 824, 1-(5-chloro-6-(cyclopentylmethoxy)-2-methoxy-3-pyridinyl)-N-3-isoxazolyl-2-oxo-1,2-dihydro-6-quinolinesulfonamide]
43 | COc1ccc(-c2cc(F)cc(Cl)c2)cc1-n1c(=O)ccc2cc(S(=O)(=O)Nc3ncco3)ccc21 [Example 864, 1-(3′-chloro-5′-fluoro-4-methoxy-3-biphenylyl)-N-1,3-oxazol-2-yl-2-oxo-1,2-dihydro-6-quinolinesulfonamide]
11 | COc1cc(-c2cc(C)cc(C)c2)ccc1-n1c(=O)ccc2cc(S(=O)(=O)Nc3ccon3)ccc21 [Example 1016, N-3-isoxazolyl-1-(3-methoxy-3′,5′-dimethyl-4-biphenylyl)-2-oxo-1,2-dihydro-6-quinolinesulfonamide]
41 | COc1cc(-c2ccc(F)c(F)c2)c(F)cc1-n1c(=O)ccc2cc(S(=O)(=O)Nc3ncco3)ccc21 [Example 936, N-1,3-oxazol-2-yl-2-oxo-1-(2,3′,4′-trifluoro-5-methoxy-4-biphenylyl)-1,2-dihydro-6-quinolinesulfonamide]
56 | COc1cc(-c2cccc(Cl)c2OC)ccc1-n1c(=O)ccc2cc(S(=O)(=O)Nc3ccon3)ccc21 [Example 815, 1-(3′-chloro-2′,3-dimethoxy-4-biphenylyl)-N-3-isoxazolyl-2-oxo-1,2-dihydro-6-quinolinesulfonamide]

SMILES | IC50 [nM]
Cc1cc(-c2cc(C)c(-n3c(=O)ccc4cc(S(=O)(=O)Nc5ncccn5)ccc43)cc2F)ccc1Cl (atropisomer, axis not shown; (P)) [Example 649] | 49
COc1cc(-c2cccc(C(F)(F)F)c2)c(F)cc1-n1c(=O)ccc2cc(S(=O)(=O)[N-][n+]3ccccc3)ccc21 [Example 817, ((1-(2-fluoro-5-methoxy-3′-(trifluoromethyl)-4-biphenylyl)-2-oxo-1,2-dihydro-6-quinolinyl)sulfonyl)(1-pyridiniumyl)azanide] | 4530

Same assay, conditions: in-vitro Nav 1.7 PX data (PatchXpress)

IC50 [nM] | SMILES
127 | O=c1ccc2cc(S(=O)(=O)Nc3ccon3)ccc2n1-c1ccc(-c2cc(F)cc(F)c2)cc1C1CC1 (atropisomer, axis not shown; (P)) [Example 629, (P)-1-(3-cyclopropyl-3′,5′-difluoro-4-biphenylyl)-N-3-isoxazolyl-2-oxo-1,2-dihydro-6-quinolinesulfonamide]
16 | COc1cc(-c2cc(C)ccc2C)ccc1-n1c(=O)ccc2cc(S(=O)(=O)Nc3ccon3)ccc21 [Example 1055, N-3-isoxazolyl-1-(3-methoxy-2′,5′-dimethyl-4-biphenylyl)-2-oxo-1,2-dihydro-6-quinolinesulfonamide]
28 | COc1cc(-c2ccc(C)cc2Cl)ccc1-n1c(=O)ccc2cc(S(=O)(=O)Nc3ccon3)ccc21 [Example 1060, 1-(2′-chloro-3-methoxy-4′-methyl-4-biphenylyl)-N-3-isoxazolyl-2-oxo-1,2-dihydro-6-quinolinesulfonamide]

Same assay, conditions: in-vitro PatchXpress (PX)

IC50 [nM] | SMILES
24800 | COc1cc(-c2cccc(C#N)c2)c(F)cc1-n1c(=O)ccc2cc(S(=O)(=O)Nc3ccon3)ccc21 (atropisomer, axis not shown; (M)) [Example 499, (M)-1-(3′-cyano-2-fluoro-5-methoxy-4-biphenylyl)-N-3-isoxazolyl-2-oxo-1,2-dihydro-6-quinolinesulfonamide]
